Where two headings read alike, the source gives them in different places.
What was measured:
Type in all cases: biochemical
IMP-1 = IMP-1 (Serratia marcescens, UniProt P52699); assay: IMP-1 inhibition assay with nitrocefin as substrate; conditions: Subclass B1 MBL, enzyme 891 nM, 100 μM nitrocefin, 5 minute pre-incubation
Excerpt: (§1) The blaNDM-1 gene (GenBank ID: FN396876) from K. pneumoniae clinical isolate, blaIMP-1 gene (GenBank ID: S71932) from Acinetobacter baumannii clinical isolate, and blaVIM-2 gene (GenBank ID: AF191564) from Citrobacter freundii clinical isolate were cloned after PCR amplification with primer pairs (Table 3) and then sequenced. Those three clinical isolates were collected from a university hospital in the Republic of Korea. Three DNA templates encoding blaGIM-1 gene (GenBank ID: AJ620678), blacphA gene (GenBank ID: X57102), and blaGOB-1 gene (GenBank ID: AF090141), which are codon optimized for E. coli, were synthesized and purchased from IDT (Integrated DNA Technologies, Coralville, Iowa, USA). The DNA templates were amplified by PCR using suitable primer pairs (Table 3). The amplified DNA and pET-30a(+) vector (Novagen, Madison, Wis., USA) were double-digested with NdeI and XhoI, with digested DNA then ligated into the digested vector. After verifying the DNA sequences, the plasmids, pET-30a(+)/His6-blaNDM-1, pET-30a(+)/His6-blaIMP-1, pET-30a(+)/His6-blaVIM-2, pET-30a(+)/His6-blaGIM-1, pET-30a(+)/His6-blacphA, and pET-30a(+)/His6-blaGOB-1 were individually transformed into E. coli BL21 (DE3) cells. Each of the histidine-tagged proteins, NDM-1, IMP-1, VIM-2, GIM-1, CphA, and GOB-1 were prepared as previously described (Park, et al., J. Glob. Antimicrob. Resist., 14, 302-305 (2018)).
(§2) To investigate the inhibitory effects of novel compounds (DCPBA, ACP-DCPBA, and CHP-DCPBA) against four clinically-important subclass B1 MBLs (NDM-1, IMP-1, VIM-2, and GIM-1), subclass B2 MBL (CphA), and subclass B3 MBL (GOB-1), the IC50 values for them were determined (Table 4). Compounds (DCPBA, ACP-DCPBA, and CHP-DCPBA) were dissolved in 100% DMSO at 10 mM. Activities of MBLs were determined by monitoring the change of absorbance at 482 nm. Up to 5% DMSO, no influence on the enzyme activities of MBLs was observed. […] Data were evaluated using Microsoft Excel. Reaction progress at every concentration of DCPBA (ACP-DCPBA or CHP-DCPBA) was measured in triplicates.

GOB-1 = GOB-1 (Elizabethkingia meningoseptica, UniProt Q9RB00); assay: GOB-1 inhibition assay with nitrocefin as substrate; conditions: Subclass B3 MBL, enzyme 2.69 μM, 100 μM nitrocefin, 5 minute pre-incubation
Chain of GOB-1 (Q9RB00 entry or part of it): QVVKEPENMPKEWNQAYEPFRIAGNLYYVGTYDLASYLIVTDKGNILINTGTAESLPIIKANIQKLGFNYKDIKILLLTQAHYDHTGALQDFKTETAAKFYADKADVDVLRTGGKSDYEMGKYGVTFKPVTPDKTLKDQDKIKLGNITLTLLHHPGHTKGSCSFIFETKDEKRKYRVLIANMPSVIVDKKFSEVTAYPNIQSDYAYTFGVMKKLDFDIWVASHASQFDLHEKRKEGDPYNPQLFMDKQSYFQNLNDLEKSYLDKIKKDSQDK
Excerpt: as §1, §2

GIM-1 = GIM-1 (Pseudomonas aeruginosa, UniProt Q704V1); assay: GIM-1 inhibition assay with nitrocefin as substrate
Chain of GIM-1 (Q704V1 19-250): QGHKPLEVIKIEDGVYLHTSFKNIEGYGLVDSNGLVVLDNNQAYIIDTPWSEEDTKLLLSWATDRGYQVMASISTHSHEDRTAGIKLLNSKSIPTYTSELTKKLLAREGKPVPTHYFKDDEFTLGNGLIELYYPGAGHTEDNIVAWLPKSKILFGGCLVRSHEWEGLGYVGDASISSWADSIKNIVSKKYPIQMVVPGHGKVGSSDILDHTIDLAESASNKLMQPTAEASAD
Excerpt: as §1, §2

CphA = CphA (Aeromonas hydrophila, UniProt P26918); assay: CphA inhibition assay with nitrocefin as substrate; conditions: for IC50 of CphA relative to that for DCPBA: fold lower than DCPBA
Chain of CphA (P26918 28-254): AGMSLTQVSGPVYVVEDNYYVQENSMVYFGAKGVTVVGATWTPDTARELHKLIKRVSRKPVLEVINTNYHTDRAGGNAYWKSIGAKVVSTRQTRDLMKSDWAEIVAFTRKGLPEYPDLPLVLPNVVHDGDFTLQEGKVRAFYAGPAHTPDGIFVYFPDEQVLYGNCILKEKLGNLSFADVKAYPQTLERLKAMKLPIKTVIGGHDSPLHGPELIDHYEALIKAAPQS
Excerpt: as §1
To investigate the inhibitory effects of novel compounds (DCPBA, ACP-DCPBA, and CHP-DCPBA) against four clinically-important subclass B1 MBLs (NDM-1, IMP-1, VIM-2, and GIM-1), subclass B2 MBL (CphA), and subclass B3 MBL (GOB-1), the IC50 values for them were determined (Table 4). Compounds (DCPBA, ACP-DCPBA, and CHP-DCPBA) were dissolved in 100% DMSO at 10 mM. Activities of MBLs were determined by monitoring the change of absorbance at 482 nm. Up to 5% DMSO, no influence on the enzyme activities of MBLs was observed. Each enzyme (NDM-1, 263 nM; IMP-1, 891 nM; VIM-2, 81 nM; GIM-1, 662 nM; CphA, 157 nM; GOB-1, 2.69 μM) was mixed with 100 μM nitrocefin after a 5 minute pre-incubation with compounds (DCPBA, ACP-DCPBA, and CHP-DCPBA). The first 120 s of each reaction was used to measure initial rates. Data were evaluated using Microsoft Excel. Reaction progress at every concentration of DCPBA (ACP-DCPBA or CHP-DCPBA) was measured in triplicates.

VIM-2 = VIM-2 (Pseudomonas aeruginosa, UniProt Q9K2N0); assay: VIM-2 inhibition assay with nitrocefin as substrate
Excerpt: as §1, §2

NDM-1 = NDM-1 (Klebsiella pneumoniae, UniProt C7C422); assay: NDM-1 inhibition assay with nitrocefin as substrate
Chain of NDM-1 (C7C422 30-270 limits assumed, looked up): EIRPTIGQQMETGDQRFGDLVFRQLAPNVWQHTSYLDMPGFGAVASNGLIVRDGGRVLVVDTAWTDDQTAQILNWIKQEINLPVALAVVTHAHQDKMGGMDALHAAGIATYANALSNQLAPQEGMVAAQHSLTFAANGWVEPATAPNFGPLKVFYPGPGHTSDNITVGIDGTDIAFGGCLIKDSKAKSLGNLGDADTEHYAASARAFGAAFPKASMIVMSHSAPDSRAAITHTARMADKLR
Protocol: The screened seven compounds were dissolved in 100% DMSO at 10 mM. More diluted stocks were prepared as necessary. NDM-1 activity was determined by monitoring the change of absorbance at 482 nm using the characteristic molecular extinction coefficient (Δε482=15,900 M^−1 cm^−1) of nitrocefin (NCF) (Oxoid, Hampshire, UK) by a Shimazu UV-1650PC spectrophotometer. Up to 5% DMSO, no influence on the enzyme activities of MBLs was observed. The assays were conducted in 50 mM MES (pH 7.0) containing an enzyme (263 nM), 100 μM ZnCl2, and 100 μg/mL bovine serum albumin. After 5 min of pre-incubation of the purified enzyme and inhibitor at 30° C., the enzymatic reaction was started by adding nitrocefin (100 μM). Residual velocities were determined after 5 minutes. The first 120 s of each reaction was used to measure initial rates. Data were evaluated using Microsoft Excel. Concentration-dependent inhibition of NDM-1 was measured using different concentrations of seven compounds resulting from two-fold dilution series. Reaction progress at every concentration of seven compounds was measured in triplicates. IC50 values were calculated using 4-parameter log fits using XL Fit curve fitting software (www.idbs.com) for Excel using the following equation: […]
where y is the remaining enzyme activity (in %) and x is the corresponding concentration. The fitted IC50 parameter is defined as the concentration giving a response half way between the fitted top (B) and bottom (A) of the curve. […]
as §2, with “Compounds (DCPBA, ACP-DCPBA, and CHP-DCPBA) were dissolved in 100% DMSO at 10 mM.” left out, “nm.” for “nm. Up to 5% DMSO, no influence on the enzyme activities of MBLs was observed.”

[1] = Subclass B1 MBL, enzyme 263 nM, 100 μM nitrocefin, 5 minute pre-incubation, read-out: IC50 NDM-1

Chain of IMP-1 (P52699 21-246 limits assumed): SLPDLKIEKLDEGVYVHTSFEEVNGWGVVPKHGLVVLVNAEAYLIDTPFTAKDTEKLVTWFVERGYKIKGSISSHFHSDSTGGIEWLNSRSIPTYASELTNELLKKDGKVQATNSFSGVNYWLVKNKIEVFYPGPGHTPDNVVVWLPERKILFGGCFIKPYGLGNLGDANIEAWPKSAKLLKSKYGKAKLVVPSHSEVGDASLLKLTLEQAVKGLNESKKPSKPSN

Structure (SMILES)	IC50 (IMP-1)	IC50 (GOB-1)	IC50 (GIM-1)	IC50 (CphA)	IC50 of CphA relative to that for DCPBA (CphA)	IC50 (VIM-2)	IC50 (NDM-1; [1])	IC50 (GIM-1; Subclass B1 MBL, enzyme 662 nM, 100 μM nitrocefin, 5 minute pre-incubation, read-out: IC50 GIM-1)	IC50 (CphA; Subclass B2 MBL, enzyme 157 nM, 100 μM nitrocefin, 5 minute pre-incubation, read-out: IC50 CphA)	IC50 (NDM-1; NDM-1 263 nM, nitrocefin 100 μM, 50 mM MES pH 7.0, 5 min pre-incubation at 30° C., read-out: IC50 values on NDM-1 of the screened compounds)
Nc1ccc(Oc2c(Cl)cc(B(O)O)cc2Cl)cc1Cl [ACP-DCPBA, (4-(4-amino-3-chlorophenoxy)-3,5-dichlorophenyl)boronic Acid]	738.41 ± 0.01 µM	790.24 ± 0.02 µM	144.64 ± 0.01 µM	90.19 ± 0.01 µM	six-fold lower	22.78 ± 0.01 µM	78.78 ± 0.01 µM			
OB(O)c1cc(Cl)c(Oc2ccc(Cl)cc2O)c(Cl)c1 [CHP-DCPBA, (3,5-dichloro-4-(4-chloro-2-hydroxyphenoxy)phenyl)boronic acid]	468.3 ± 0.01 µM	468.5 ± 0.01 µM			six-fold lower	15.15 ± 0.01 µM	37.77 ± 0.01 µM	81.35 ± 0.03 µM	80.81 ± 0.01 µM	
OB(O)c1cc(Cl)cc(Cl)c1 [Compound 1, 3,5-Dichlorophenylboronic Acid]	738.88 ± 0.01 µM	798.9 ± 0.02 µM	144.64 ± 0.01 µM	530.87 ± 0.02 µM		27.33 ± 0.01 µM				79.9 µM

— US11395829B2, “Inhibitors of metallo-beta-lactamases produced by multidrug-resistant bacteria” (MYONGJI UNIVERSITY INDUSTRY AND ACADEMIA COOPERATION …, priority 2019, dated 2022)
